Test system: 521955-158-R2-J5-PDC complex spheroid viability
Assay: Anticancer human tumor 521955-158-R2-J5-PDC patient-derived pancreatic carcinoma cell line growth inhibition [GQUAD]
Conditions: for IC50: curve of first compound; for viability, T/C: stronger effect = lower value
Summary of the method: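 Tumor cells were grown as complex spheroids with HUVEC endothelial cells and mesenchymal stem cells as stroma. G-quadruplex stabilizers were combined with targeted agents over half-log dilutions from near the clinical Cmax, or from 10 microM.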

[1] = second compound 0.0316 µM, first compound 0.0316 µM
[2] = second compound 0.0316 µM, first compound 0.1 µM
[3] = second compound 0.0316 µM, first compound 0.316 µM
[4] = second compound 0.0316 µM, first compound 1 µM
[5] = second compound 0.0316 µM, first compound 3.16 µM
[6] = second compound 0.0316 µM, first compound 10 µM
[7] = second compound 0.1 µM, first compound 0.0316 µM
[8] = second compound 0.1 µM, first compound 0.1 µM
[9] = second compound 0.1 µM, first compound 0.316 µM
[10] = second compound 0.1 µM, first compound 1 µM
[11] = second compound 0.1 µM, first compound 3.16 µM
[12] = second compound 0.1 µM, first compound 10 µM
[13] = second compound 0.316 µM, first compound 0.0316 µM
[14] = second compound 0.316 µM, first compound 0.1 µM
[15] = second compound 0.316 µM, first compound 0.316 µM
[16] = second compound 0.316 µM, first compound 1 µM
[17] = second compound 0.316 µM, first compound 3.16 µM
[18] = second compound 0.316 µM, first compound 10 µM
[19] = second compound 1 µM, first compound 0.0316 µM
[20] = second compound 1 µM, first compound 0.1 µM
[21] = second compound 1 µM, first compound 0.316 µM
[22] = second compound 1 µM, first compound 1 µM
[23] = second compound 1 µM, first compound 3.16 µM
[24] = second compound 1 µM, first compound 10 µM
[25] = second compound 3.16 µM, first compound 0.0316 µM
[26] = second compound 3.16 µM, first compound 0.1 µM
[27] = second compound 3.16 µM, first compound 0.316 µM
[28] = second compound 3.16 µM, first compound 1 µM
[29] = second compound 3.16 µM, first compound 3.16 µM
[30] = second compound 3.16 µM, first compound 10 µM
[31] = second compound 10 µM, first compound 0.0316 µM
[32] = second compound 10 µM, first compound 0.1 µM
[33] = second compound 10 µM, first compound 0.316 µM
[34] = second compound 10 µM, first compound 1 µM
[35] = second compound 10 µM, first compound 3.16 µM
[36] = second compound 10 µM, first compound 10 µM
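Also: spheroids exposed to agents for one week before reading.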
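For viability, T/C in this document: 100% = DMSO vehicle control viability.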

SMILES: COc1cccc2c1C(=O)c1c(O)c3c(c(O)c1C2=O)CC(O)(C(=O)CO)CC3OC1CC(N)C(O)C(C)O1 (stereo not drawn) + Cc1[nH]c2ccc(F)cc2c1-c1nc2c3cccnc3c3ncccc3c2[nH]1
- IC50 (second compound 0.0316 µM): 150 nM
- IC50 (second compound 0.1 µM): 193 nM
- IC50 (second compound 0.316 µM): 188 nM
- IC50 (second compound 1 µM): 130 nM
- IC50 (second compound 3.16 µM): 156 nM
- IC50 (second compound 10 µM): 182 nM
- viability, T/C [1]: 102%
- viability, T/C [2]: 60.3%
- viability, T/C [3]: 31.3%
- viability, T/C [4]: 13.2%
- viability, T/C [5]: 5.72%
- viability, T/C [6]: 0.72%
- viability, T/C [7]: 92.3%
- viability, T/C [8]: 72.2%
- viability, T/C [9]: 32.9%
- viability, T/C [10]: 11%
- viability, T/C [11]: 5.83%
- viability, T/C [12]: 0.27%
- viability, T/C [13]: 88.4%
- viability, T/C [14]: 72.9%
- viability, T/C [15]: 30%
- viability, T/C [16]: 13.7%
- viability, T/C [17]: 3.99%
- viability, T/C [18]: 0.46%
- viability, T/C [19]: 90.1%
- viability, T/C [20]: 57.7%
- viability, T/C [21]: 25.4%
- viability, T/C [22]: 14.1%
- viability, T/C [23]: 5.66%
- viability, T/C [24]: 0.41%
- viability, T/C [25]: 85.7%
- viability, T/C [26]: 65.6%
- viability, T/C [27]: 24.5%
- viability, T/C [28]: 17.2%
- viability, T/C [29]: 4.87%
- viability, T/C [30]: 0.33%
- viability, T/C [31]: 97.5%
- viability, T/C [32]: 73.6%
- viability, T/C [33]: 27.5%
- viability, T/C [34]: 12.1%
- viability, T/C [35]: 9.02%
- viability, T/C [36]: 0.29%

SMILES: COc1cccc2c1C(=O)c1c(O)c3c(c(O)c1C2=O)CC(O)(C(=O)CO)CC3OC1CC(N)C(O)C(C)O1 (stereo not drawn) + CN(C)c1ccc(Nc2c3ccc(NC(=O)CCN4CCCC4)cc3nc3cc(NC(=O)CCN4CCCC4)ccc23)cc1
- IC50 (second compound 0.0316 µM): 164 nM
- IC50 (second compound 0.1 µM): 221 nM
- IC50 (second compound 0.316 µM): 208 nM
- IC50 (second compound 1 µM): 186 nM
- IC50 (second compound 3.16 µM): 176 nM
- IC50 (second compound 10 µM): 422 nM
- viability, T/C [1]: 85.5%
- viability, T/C [2]: 56.6%
- viability, T/C [3]: 31.2%
- viability, T/C [4]: 37.4%
- viability, T/C [5]: 3.76%
- viability, T/C [6]: 2.73%
- viability, T/C [7]: 97.3%
- viability, T/C [8]: 68.8%
- viability, T/C [9]: 37.8%
- viability, T/C [10]: 29.9%
- viability, T/C [11]: 2.6%
- viability, T/C [12]: 2.75%
- viability, T/C [13]: 101%
- viability, T/C [14]: 67.6%
- viability, T/C [15]: 34.3%
- viability, T/C [16]: 33.3%
- viability, T/C [17]: 1.27%
- viability, T/C [18]: 2.99%
- viability, T/C [19]: 85.9%
- viability, T/C [20]: 67.9%
- viability, T/C [21]: 29.1%
- viability, T/C [22]: 30.7%
- viability, T/C [23]: 0.97%
- viability, T/C [24]: 3%
- viability, T/C [25]: 83%
- viability, T/C [26]: 58.2%
- viability, T/C [27]: 34.1%
- viability, T/C [28]: 36.5%
- viability, T/C [29]: 1.22%
- viability, T/C [30]: 1.89%
- viability, T/C [31]: 61.9%
- viability, T/C [32]: 61.7%
- viability, T/C [33]: 52.9%
- viability, T/C [34]: 33.1%
- viability, T/C [35]: 1.41%
- viability, T/C [36]: 1.9%

SMILES: C=CCn1c(=O)c2cnc(Nc3ccc(N4CCN(C)CC4)cc3)nc2n1-c1cccc(C(C)(C)O)n1 + Cc1cnc(CNC(=O)c2c(=O)c3ccc(N4CCCN(C)CC4)nc3n3c2sc2ccccc23)cn1
- IC50 (second compound 0.0316 µM): 77.1 nM
- IC50 (second compound 0.1 µM): 124 nM
- IC50 (second compound 0.316 µM): < 31.6 nM
- IC50 (second compound 1 µM): < 31.6 nM
- IC50 (second compound 3.16 µM): < 31.6 nM
- IC50 (second compound 10 µM): < 31.6 nM
- viability, T/C [1]: 67%
- viability, T/C [2]: 44.9%
- viability, T/C [3]: 19.5%
- viability, T/C [4]: 10%
- viability, T/C [5]: 7.12%
- viability, T/C [6]: 11.2%
- viability, T/C [7]: 53.5%
- viability, T/C [8]: 56%
- viability, T/C [9]: 30.3%
- viability, T/C [10]: 17.6%
- viability, T/C [11]: 13.1%
- viability, T/C [12]: 11.6%
- viability, T/C [13]: 35.1%
- viability, T/C [14]: 45.4%
- viability, T/C [15]: 28.4%
- viability, T/C [16]: 20.1%
- viability, T/C [17]: 15.9%
- viability, T/C [18]: 11.2%
- viability, T/C [19]: 17.4%
- viability, T/C [20]: 19.6%
- viability, T/C [21]: 21.1%
- viability, T/C [22]: 17.7%
- viability, T/C [23]: 14.3%
- viability, T/C [24]: 10.1%
- viability, T/C [25]: 13.3%
- viability, T/C [26]: 16.3%
- viability, T/C [27]: 17.8%
- viability, T/C [28]: 11.6%
- viability, T/C [29]: 11.7%
- viability, T/C [30]: 2.19%
- viability, T/C [31]: 11.6%
- viability, T/C [32]: 15%
- viability, T/C [33]: 15.4%
- viability, T/C [34]: 8.4%
- viability, T/C [35]: 0.28%
- viability, T/C [36]: 0.23%

SMILES: CCCS(=O)(=O)Nc1ccc(F)c(C(=O)c2c[nH]c3ncc(-c4ccc(Cl)cc4)cc23)c1F + CN(C)c1ccc(Nc2c3ccc(NC(=O)CCN4CCCC4)cc3nc3cc(NC(=O)CCN4CCCC4)ccc23)cc1
- IC50 (second compound 0.0316 µM): > 10000 nM
- IC50 (second compound 0.1 µM): > 10000 nM
- IC50 (second compound 0.316 µM): > 10000 nM
- IC50 (second compound 1 µM): > 10000 nM
- IC50 (second compound 3.16 µM): 6690 nM
- IC50 (second compound 10 µM): 3720 nM
- viability, T/C [1]: 124%
- viability, T/C [2]: 89.2%
- viability, T/C [3]: 80.7%
- viability, T/C [4]: 118%
- viability, T/C [5]: 271%
- viability, T/C [6]: 106%
- viability, T/C [7]: 102%
- viability, T/C [8]: 84%
- viability, T/C [9]: 72.4%
- viability, T/C [10]: 109%
- viability, T/C [11]: 264%
- viability, T/C [12]: 106%
- viability, T/C [13]: 95.5%
- viability, T/C [14]: 90.1%
- viability, T/C [15]: 92.5%
- viability, T/C [16]: 104%
- viability, T/C [17]: 248%
- viability, T/C [18]: 98.3%
- viability, T/C [19]: 95.4%
- viability, T/C [20]: 76.4%
- viability, T/C [21]: 76.8%
- viability, T/C [22]: 171%
- viability, T/C [23]: 251%
- viability, T/C [24]: 85.2%
- viability, T/C [25]: 73%
- viability, T/C [26]: 83.6%
- viability, T/C [27]: 61%
- viability, T/C [28]: 111%
- viability, T/C [29]: 174%
- viability, T/C [30]: 22.9%
- viability, T/C [31]: 69.9%
- viability, T/C [32]: 68.4%
- viability, T/C [33]: 111%
- viability, T/C [34]: 100%
- viability, T/C [35]: 58%
- viability, T/C [36]: 2.26%
